Reference: patent US10131652B2, “Pyrimidinyloxy benzene derivatives as herbicides” (E. I. DU PONT DE NEMOURS AND COMPANY, priority 2014, dated 2018)

Legend:
Experiment in all cases: Test D pre-/postemergence plant response
Type in all cases: in vivo
[1] = system: Italian ryegrass (Lolium multiflorum)
Description: (§1) Seeds of plant species selected from blackgrass (Alopecurus myosuroides), Italian ryegrass (Lolium multiflorum), winter wheat (Triticum aestivum), galium (catchweed bedstraw, Galium aparine), corn (Zea mays), large (Lg) crabgrass (Digitaria sanguinalis), giant foxtail (Setaria faberii), johnsongrass (Sorghum halepense), lambsquarters (Chenopodium album), morningglory (Ipomoea coccinea), yellow nutsedge (Cyperus esculentus), pigweed (Amaranthus retroflexus), ragweed (common ragweed, Ambrosia elatior), soybean (Glycine max), bamyardgrass (Echinochloa crus-galli), oilseed rape (Brassica napus), waterhemp (common waterhemp, Amaranthus rudis), and velvetleaf (Abutilon theophrasti) were planted into a blend of loam soil and sand and treated preemergence with test chemicals formulated in a non-phytotoxic solvent mixture which included a surfactant. At the same time, plants selected from these crop and weed species and also kochia (Kochia scoparia), wild oat (Avena fatua), and chickweed (common chickweed, Stellaria media) were planted in pots containing Redi-Earth® planting medium (Scotts Company, 14111 Scottslawn Road, Marysville, Ohio 43041) comprising spaghnum peat moss, vermiculite, wetting agent and starter nutrients and treated with postemergence applications of test chemicals formulated in the same manner. Plants ranged in height from 2 to 18 cm (1- to 4-leaf stage) for postemergence treatments. Treated plants and controls were maintained in a greenhouse for 13 to 15 days, after which time all species were compared to controls and visually evaluated. Plant response ratings, summarized in Table D, are based on a scale of 0 to 100 where 0 is no effect and 100 is complete control. A dash (-) response means no test result.

[2] = system: barnyardgrass (Echinochloa crus-galli)
Description: as §1

[3] = system: blackgrass (Alopecurus myosuroides)
Description: as §1

corn (Zea mays) = system: corn (Zea mays)
Description: as §1

[4] = system: galium (catchweed bedstraw, Galium aparine)
Description: as §1

[5] = system: giant foxtail (Setaria faberii)
Description: as §1

[6] = system: johnsongrass (Sorghum halepense)
Description: as §1

[7] = system: lambsquarters (Chenopodium album)
Description: as §1

[8] = system: large (Lg) crabgrass (Digitaria sanguinalis)
Description: as §1

[9] = system: morningglory (Ipomoea coccinea)
Description: as §1

[10] = system: oilseed rape (Brassica napus)
Description: as §1

[11] = system: pigweed (Amaranthus retroflexus)
Description: as §1

[12] = system: ragweed (common ragweed, Ambrosia elatior)
Description: as §1

soybean (Glycine max) = system: soybean (Glycine max)
Description: as §1

[13] = system: velvetleaf (Abutilon theophrasti)
Description: as §1

[14] = system: waterhemp (common waterhemp, Amaranthus rudis)
Description: as §1

[15] = system: winter wheat (Triticum aestivum)
Description: as §1

[16] = system: yellow nutsedge (Cyperus esculentus); settings: Preemergence; for Plant response rating, Nutsedge, Yellow: scale 0 to 100 (0 no effect, 100 complete control)
Description: as §1

[17] = Postemergence, 16 g ai/ha, scale 0 to 100 (0 no effect, 100 complete control)
[18] = Postemergence, 31 g ai/ha, scale 0 to 100 (0 no effect, 100 complete control)
[19] = Postemergence, 62 g ai/ha, scale 0 to 100, 0 no effect, 100 complete control
[20] = Postemergence, 125 g ai/ha, scale 0 to 100, 0 no effect, 100 complete control
[21] = Preemergence, 16 g ai/ha, scale 0 to 100 (0 no effect, 100 complete control)
[22] = Preemergence, 31 g ai/ha, scale 0 to 100 (0 no effect, 100 complete control)
[23] = Preemergence, 62 g ai/ha, scale 0 to 100 (0 no effect, 100 complete control)

FC(F)(F)c1cc(-c2ccccc2Oc2ncc(Cl)cn2)ncn1 [Compound 54]
Ryegrass, Italian plant response rating [1, 17]: 0 | Ryegrass, Italian plant response rating [1, 18]: 0 | Plant response rating, Ryegrass, Italian [1, 19]: 0 | Plant response rating, Ryegrass, Italian [1, 20]: 0 | Plant response rating (scale 0 to 100), Ryegrass, Italian ([1]; Preemergence, 125 g ai/ha): 30 | Plant response rating, Ryegrass, Italian [1, 21]: 0 | Plant response rating, Ryegrass, Italian [1, 22]: 5 | Plant response rating, Ryegrass, Italian [1, 23]: 5 | Barnyardgrass plant response rating [2, 17]: 0 | Barnyardgrass plant response rating [2, 18]: 5 | Plant response rating, Barnyardgrass [2, 19]: 5 | Plant response rating, Barnyardgrass [2, 20]: 10 | Plant response rating (scale 0 to 100), Barnyardgrass ([2]; Preemergence, 62 g ai/ha): 10 | Plant response rating (scale 0 to 100), Barnyardgrass ([2]; Preemergence, 125 g ai/ha): 95 | Plant response rating, Barnyardgrass [2, 21]: 0 | Plant response rating, Barnyardgrass [2, 22]: 5 | Blackgrass plant response rating [3, 17]: 0 | Blackgrass plant response rating [3, 18]: 5 | Plant response rating, Blackgrass [3, 19]: 5 | Plant response rating, Blackgrass [3, 20]: 5 | Plant response rating (scale 0 to 100), Blackgrass ([3]; Preemergence, 125 g ai/ha): 70 | Plant response rating, Blackgrass [3, 21]: 5 | Plant response rating, Blackgrass [3, 22]: 5 | Plant response rating, Blackgrass [3, 23]: 40 | Corn plant response rating (corn (Zea mays); [17]): 0 | Corn plant response rating (corn (Zea mays); [18]): 0 | Plant response rating, Corn (corn (Zea mays); [19]): 5 | Plant response rating, Corn (corn (Zea mays); [20]): 5 | Plant response rating (scale 0 to 100), Corn (corn (Zea mays); Preemergence, 125 g ai/ha): 0 | Plant response rating, Corn (corn (Zea mays); [21]): 0 | Plant response rating, Corn (corn (Zea mays); [22]): 0 | Plant response rating, Corn (corn (Zea mays); [23]): 0 | Galium plant response rating [4, 17]: 50 | Galium plant response rating [4, 18]: 55 | Plant response rating, Galium [4, 19]: 55 | Plant response rating, Galium [4, 20]: 75 | Plant response rating (scale 0 to 100), Galium ([4]; Preemergence, 125 g ai/ha): 85 | Plant response rating, Galium [4, 21]: 50 | Plant response rating, Galium [4, 22]: 85 | Plant response rating, Galium [4, 23]: 60 | Foxtail, Giant plant response rating [5, 17]: 0 | Foxtail, Giant plant response rating [5, 18]: 30 | Plant response rating, Foxtail, Giant [5, 19]: 10 | Plant response rating, Foxtail, Giant [5, 20]: 50 | Plant response rating (scale 0 to 100), Foxtail, Giant ([5]; Preemergence, 125 g ai/ha): 95 | Plant response rating, Foxtail, Giant [5, 21]: 0 | Plant response rating, Foxtail, Giant [5, 22]: 10 | Plant response rating, Foxtail, Giant [5, 23]: 95 | Johnsongrass plant response rating [6, 17]: 0 | Johnsongrass plant response rating [6, 18]: 0 | Plant response rating, Johnsongrass [6, 19]: 5 | Plant response rating, Johnsongrass [6, 20]: 5 | Plant response rating (scale 0 to 100), Johnsongrass ([6]; Preemergence, 125 g ai/ha): 40 | Plant response rating, Johnsongrass [6, 21]: 0 | Plant response rating, Johnsongrass [6, 22]: 0 | Plant response rating, Johnsongrass [6, 23]: 10 | Lambsquarters plant response rating [7, 17]: 0 | Lambsquarters plant response rating [7, 18]: 5 | Plant response rating, Lambsquarters [7, 19]: 5 | Plant response rating, Lambsquarters [7, 20]: 70 | Plant response rating (scale 0 to 100), Lambsquarters ([7]; Preemergence, 125 g ai/ha): 85 | Plant response rating, Lambsquarters [7, 21]: 5 | Plant response rating, Lambsquarters [7, 22]: 60 | Plant response rating, Lambsquarters [7, 23]: 85 | Crabgrass, Large plant response rating [8, 17]: 5 | Crabgrass, Large plant response rating [8, 18]: 5 | Plant response rating, Crabgrass, Large [8, 19]: 5 | Plant response rating, Crabgrass, Large [8, 20]: 5 | Plant response rating (scale 0 to 100), Crabgrass, Large ([8]; Preemergence, 125 g ai/ha): 100 | Plant response rating, Crabgrass, Large [8, 21]: 10 | Plant response rating, Crabgrass, Large [8, 22]: 75 | Plant response rating, Crabgrass, Large [8, 23]: 90 | Morningglory plant response rating [9, 17]: 5 | Morningglory plant response rating [9, 18]: 75 | Plant response rating, Morningglory [9, 19]: 75 | Plant response rating, Morningglory [9, 20]: 85 | Plant response rating (scale 0 to 100), Morningglory ([9]; Preemergence, 125 g ai/ha): 15 | Plant response rating, Morningglory [9, 21]: 0 | Plant response rating, Morningglory [9, 22]: 0 | Plant response rating, Morningglory [9, 23]: 5 | Oilseed Rape plant response rating [10, 17]: 5 | Oilseed Rape plant response rating [10, 18]: 20 | Plant response rating, Oilseed Rape [10, 19]: 50 | Plant response rating, Oilseed Rape [10, 20]: 60 | Plant response rating (scale 0 to 100), Oilseed Rape ([10]; Preemergence, 125 g ai/ha): 100 | Plant response rating, Oilseed Rape [10, 21]: 60 | Plant response rating, Oilseed Rape [10, 22]: 85 | Plant response rating, Oilseed Rape [10, 23]: 100 | Pigweed plant response rating [11, 17]: 60 | Pigweed plant response rating [11, 18]: 80 | Plant response rating, Pigweed [11, 19]: 80 | Plant response rating, Pigweed [11, 20]: 60 | Plant response rating (scale 0 to 100), Pigweed ([11]; Preemergence, 125 g ai/ha): 100 | Plant response rating, Pigweed [11, 21]: 5 | Plant response rating, Pigweed [11, 22]: 100 | Plant response rating, Pigweed [11, 23]: 100 | Ragweed plant response rating [12, 17]: 0 | Ragweed plant response rating [12, 18]: 0 | Plant response rating, Ragweed [12, 19]: 5 | Plant response rating, Ragweed [12, 20]: 35 | Plant response rating (scale 0 to 100), Ragweed ([12]; Preemergence, 125 g ai/ha): 35 | Plant response rating, Ragweed [12, 21]: 10 | Plant response rating, Ragweed [12, 22]: 40 | Plant response rating, Ragweed [12, 23]: 10 | Soybean plant response rating (soybean (Glycine max); [17]): 15 | Soybean plant response rating (soybean (Glycine max); [18]): 10 | Plant response rating, Soybean (soybean (Glycine max); [19]): 50 | Plant response rating, Soybean (soybean (Glycine max); [20]): 80 | Plant response rating (scale 0 to 100), Soybean (soybean (Glycine max); Preemergence, 125 g ai/ha): 20 | Plant response rating, Soybean (soybean (Glycine max); [21]): 0 | Plant response rating, Soybean (soybean (Glycine max); [22]): 10 | Plant response rating, Soybean (soybean (Glycine max); [23]): 20 | Velvetleaf plant response rating [13, 17]: 0 | Velvetleaf plant response rating [13, 18]: 5 | Plant response rating, Velvetleaf [13, 19]: 40 | Plant response rating, Velvetleaf [13, 20]: 40 | Plant response rating (scale 0 to 100), Velvetleaf ([13]; Preemergence, 125 g ai/ha): 100 | Plant response rating, Velvetleaf [13, 21]: 15 | Plant response rating, Velvetleaf [13, 22]: 70 | Plant response rating, Velvetleaf [13, 23]: 85 | Waterhemp plant response rating [14, 17]: 45 | Waterhemp plant response rating [14, 18]: 60 | Plant response rating, Waterhemp [14, 19]: 80 | Plant response rating, Waterhemp [14, 20]: 75 | Plant response rating (scale 0 to 100), Waterhemp ([14]; Preemergence, 125 g ai/ha): 100 | Plant response rating, Waterhemp [14, 21]: 25 | Plant response rating, Waterhemp [14, 22]: 85 | Plant response rating, Waterhemp [14, 23]: 100 | Wheat plant response rating [15, 17]: 0 | Wheat plant response rating [15, 18]: 0 | Plant response rating, Wheat [15, 19]: 0 | Plant response rating, Wheat [15, 20]: 5 | Plant response rating (scale 0 to 100), Wheat ([15]; Preemergence, 125 g ai/ha): 0 | Plant response rating, Wheat [15, 21]: 0 | Plant response rating, Wheat [15, 22]: 0 | Plant response rating, Wheat [15, 23]: 0 | Plant response rating (scale 0 to 100), Nutsedge, Yellow ([16]; 125 g ai/ha): 15 | Plant response rating, Nutsedge, Yellow ([16]; 16 g ai/ha): 0 | Plant response rating, Nutsedge, Yellow ([16]; 31 g ai/ha): 0 | Plant response rating, Nutsedge, Yellow ([16]; 62 g ai/ha): 0
